How the values were obtained:
Set-up in all cases: scale not given here
GLXMAW Soybean, Williams = assay: Postemergence herbicidal evaluation, GLXMAW; format: in vivo, Glycine max, (L.) Merr. cv Williams; conditions: rated two - three weeks after treatment
Method in brief: (§1)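 Seedlings grown about two weeks were sprayed with compound in 80/20 acetone/water containing 1.0% methylated seed oil, at the equivalent of about 0.006 to 0.400 kg/ha, through a nozzle at 40 psi. Plants were kept in the greenhouse and rated visually about two to three weeks after treatment.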

ABUTH Velvetleaf [1] = assay: Preemergence herbicidal evaluation, ABUTH; format: in vivo, Abutilon theophrasti, Medic.; conditions: rated four to five weeks after treatment
Method in brief: (§2)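 Preemergence soil spray: aqueous acetone, ~0.013–0.800 kg/ha, applied right after sowing (seed/potting-soil mix over ~1 in soil). Greenhouse, routine watering. Scored 4–5 wk post-treatment on a rating scale.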

ORYSAT Rice, Tebonnet = assay: Postemergence herbicidal evaluation, ORYSAT; format: in vivo, Oryza sativa, (L.); conditions: rated two - three weeks after treatment
Method in brief: as §1

SETVI Foxtail, Green = assay: Preemergence herbicidal evaluation, SETVI; format: in vivo, Setaria viridis, (L.) Beau; conditions: rated four to five weeks after treatment
Method in brief: as §2

GALAP Galium = assay: Preemergence herbicidal evaluation, GALAP; format: in vivo, Galium aparine; conditions: rated four to five weeks after treatment
Method in brief: as §2

[2] = tested on: IPOHE Morningglory, Ivyleaf; assay: Postemergence herbicidal evaluation, IPOHE; format: in vivo, Ipomoea hederacea, (L.) Jacq.; conditions: rated two - three weeks after treatment
Method in brief: as §1

AMBEL Ragweed, Common [3] = assay: Postemergence herbicidal evaluation, AMBEL; format: in vivo, Ambrosia artemisifolia, L.; conditions: rated two - three weeks after treatment
Method in brief: as §1

CASOB Sicklepod = assay: Postemergence herbicidal evaluation, CASOB; format: in vivo, Cassia obtusifolia, L.; conditions: rated two - three weeks after treatment
Method in brief: as §1

AMBEL Ragweed, Common [4] = assay: Preemergence herbicidal evaluation, AMBEL; format: in vivo, Ambrosia artemisifolia, L.; conditions: rated four to five weeks after treatment
Method in brief: as §2

[5] = tested on: CHEAL Lambsquarters, Common; assay: Preemergence herbicidal evaluation, CHEAL; format: in vivo, Chenopodium album, L.; conditions: rated four to five weeks after treatment
Method in brief: as §2

ABUTH Velvetleaf [6] = assay: Postemergence herbicidal evaluation, ABUTH; format: in vivo, Abutilon theophrasti, Medic.; conditions: rated two - three weeks after treatment
Method in brief: as §1

ZEAMX Corn, Field = assay: Postemergence herbicidal evaluation, ZEAMX; format: in vivo, Zea mays, L. (Sammel-Bezeichnung); conditions: rated two - three weeks after treatment
Method in brief: as §1

## COC(=O)COc1ccc(-n2nnc3cc(F)c(-n4c(=O)cc(C(F)(F)F)n(C)c4=O)cc32)cc1 [Example 45]
GLXMAW Soybean, Williams; rate 0.008 kg/ha
  Postemergence herbicidal rating GLXMAW: 6.0
GLXMAW Soybean, Williams; rate 0.016 kg/ha
  Postemergence herbicidal rating GLXMAW: 6.5
GLXMAW Soybean, Williams; rate 0.032 kg/ha
  Postemergence herbicidal rating GLXMAW: 8.0
GLXMAW Soybean, Williams; rate 0.062 kg/ha
  Postemergence herbicidal rating GLXMAW: 8.0
ABUTH Velvetleaf [1]; rate 0.016 kg/ha
  Preemergence herbicidal rating, ABUTH: 0.0
ABUTH Velvetleaf [1]; rate 0.032 kg/ha
  Preemergence herbicidal rating, ABUTH: 0.0
ABUTH Velvetleaf [1]; rate 0.062 kg/ha
  Preemergence herbicidal rating, ABUTH: 4.0
ABUTH Velvetleaf [1]; rate 0.125 kg/ha
  Preemergence herbicidal rating, ABUTH: 9.0
ORYSAT Rice, Tebonnet; rate 0.008 kg/ha
  Postemergence herbicidal rating ORYSAT: 0.5
ORYSAT Rice, Tebonnet; rate 0.016 kg/ha
  Postemergence herbicidal rating ORYSAT: 1.0
ORYSAT Rice, Tebonnet; rate 0.032 kg/ha
  Postemergence herbicidal rating ORYSAT: 2.0
ORYSAT Rice, Tebonnet; rate 0.062 kg/ha
  Postemergence herbicidal rating ORYSAT: 3.5
SETVI Foxtail, Green; rate 0.016 kg/ha
  Preemergence herbicidal rating, SETVI: 0.0
SETVI Foxtail, Green; rate 0.032 kg/ha
  Preemergence herbicidal rating, SETVI: 0.0
SETVI Foxtail, Green; rate 0.062 kg/ha
  Preemergence herbicidal rating, SETVI: 9.0
SETVI Foxtail, Green; rate 0.125 kg/ha
  Preemergence herbicidal rating, SETVI: 9.0
GALAP Galium; rate 0.016 kg/ha
  Preemergence herbicidal rating, GALAP: 0.0
GALAP Galium; rate 0.032 kg/ha
  Preemergence herbicidal rating, GALAP: 0.0
GALAP Galium; rate 0.062 kg/ha
  Preemergence herbicidal rating, GALAP: 4.0
GALAP Galium; rate 0.125 kg/ha
  Preemergence herbicidal rating, GALAP: 4.0
[2]; rate 0.008 kg/ha
  Postemergence herbicidal rating IPOHE: 9.0
[2]; rate 0.016 kg/ha
  Postemergence herbicidal rating IPOHE: 9.0
[2]; rate 0.032 kg/ha
  Postemergence herbicidal rating IPOHE: 9.0
[2]; rate 0.062 kg/ha
  Postemergence herbicidal rating IPOHE: 9.0
AMBEL Ragweed, Common [3]; rate 0.008 kg/ha
  Postemergence herbicidal rating AMBEL: 2.0
AMBEL Ragweed, Common [3]; rate 0.016 kg/ha
  Postemergence herbicidal rating AMBEL: 3.0
AMBEL Ragweed, Common [3]; rate 0.032 kg/ha
  Postemergence herbicidal rating AMBEL: 7.0
AMBEL Ragweed, Common [3]; rate 0.062 kg/ha
  Postemergence herbicidal rating AMBEL: 9.0
CASOB Sicklepod; rate 0.008 kg/ha
  Postemergence herbicidal rating CASOB: 0.0
CASOB Sicklepod; rate 0.016 kg/ha
  Postemergence herbicidal rating CASOB: 0.0
CASOB Sicklepod; rate 0.032 kg/ha
  Postemergence herbicidal rating CASOB: 4.0
CASOB Sicklepod; rate 0.062 kg/ha
  Postemergence herbicidal rating CASOB: 5.0
AMBEL Ragweed, Common [4]; rate 0.016 kg/ha
  Preemergence herbicidal rating, AMBEL: 0.0
AMBEL Ragweed, Common [4]; rate 0.032 kg/ha
  Preemergence herbicidal rating, AMBEL: 0.0
AMBEL Ragweed, Common [4]; rate 0.062 kg/ha
  Preemergence herbicidal rating, AMBEL: 0.0
AMBEL Ragweed, Common [4]; rate 0.125 kg/ha
  Preemergence herbicidal rating, AMBEL: 0.0
[5]; rate 0.016 kg/ha
  Preemergence herbicidal rating, CHEAL: 0.0
[5]; rate 0.032 kg/ha
  Preemergence herbicidal rating, CHEAL: 0.0
[5]; rate 0.062 kg/ha
  Preemergence herbicidal rating, CHEAL: 9.0
[5]; rate 0.125 kg/ha
  Preemergence herbicidal rating, CHEAL: 9.0
ABUTH Velvetleaf [6]; rate 0.008 kg/ha
  Postemergence herbicidal rating ABUTH: 9.0
ABUTH Velvetleaf [6]; rate 0.016 kg/ha
  Postemergence herbicidal rating ABUTH: 9.0
ABUTH Velvetleaf [6]; rate 0.032 kg/ha
  Postemergence herbicidal rating ABUTH: 9.0
ABUTH Velvetleaf [6]; rate 0.062 kg/ha
  Postemergence herbicidal rating ABUTH: 9.0
ZEAMX Corn, Field; rate 0.008 kg/ha
  Postemergence herbicidal rating ZEAMX: 7.5
ZEAMX Corn, Field; rate 0.016 kg/ha
  Postemergence herbicidal rating ZEAMX: 8.0
ZEAMX Corn, Field; rate 0.032 kg/ha
  Postemergence herbicidal rating ZEAMX: 8.0

Source: patent publication US20020111274A1, “1-alkyl-3-[1-(substituted phenyl) benzotriazol-6-yl] uracils” (BASF Aktiengesellschaft, priority 2000, published 2002)
